This is an account of results in PubChem BioAssay (NCI).

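All cell lines were grown in 96-well plates and treated with compound for 48 hours. GI50 is the concentration that inhibits growth by half. The concentration for full growth arrest is given as TGI.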

Among the test systems are ACHN renal; HCC-2998 colon; HCT-116 colon; HL-60(TB) leukemia; PC-3 prostate; SF-295 CNS; T-47D breast; UACC-62 melanoma; UO-31 renal; IGROV1 ovarian.
Holding throughout (test): NCI tumour cell line growth inhibition, 48 h

Regarding `Cc1[nH]c2ccccc2c1CO`, the GI50 was 22.8 µM in the experiment with ACHN renal; 21.2 µM in the experiment on HCC-2998 colon; 15.2 µM with HCT-116 colon; 15.8 µM in the experiment with HL-60(TB) leukemia; 17 µM in the experiment on PC-3 prostate; 22.5 µM with SF-295 CNS. For the same compound, the GI50 is 29.3 µM in the experiment on T-47D breast, 17.2 µM in the experiment on UACC-62 melanoma and 10.9 µM in the experiment on UO-31 renal. For the same compound, the TGI in the experiment on ACHN renal is 88.8 µM; with HCC-2998 colon, 47.2 µM; in the experiment on HCT-116 colon it was 28.5 µM; with HL-60(TB) leukemia it was 39 µM; in the experiment on PC-3 prostate, 43.7 µM; in the experiment on SF-295 CNS, 44.7 µM. Moreover, the TGI was greater than 100 µM in the experiment on T-47D breast, 37.4 µM in the experiment on UACC-62 melanoma and 31.7 µM with UO-31 renal.

For `COC(=O)CCc1n(Cc2ccc3ccccc3c2)c2ccccc2[n+]1Cc1ccc2ccccc2c1`, the GI50 with ACHN renal was 3.71 µM; in the experiment on HCC-2998 colon it was 0.91 µM; in the experiment on HL-60(TB) leukemia it was 0.207 µM; in the experiment on IGROV1 ovarian it was 0.441 µM; in the experiment with PC-3 prostate, 0.402 µM; in the experiment on SF-295 CNS, 1.32 µM. Further, the GI50 in the experiment on T-47D breast was 0.222 µM; in the experiment on UACC-62 melanoma, 0.361 µM; in the experiment with UO-31 renal, 2.25 µM. Besides, the TGI in the experiment on ACHN renal was found to be 13.1 µM; with HCC-2998 colon it was 2.43 µM; in the experiment on HL-60(TB) leukemia it was 0.799 µM; with IGROV1 ovarian, 1.9 µM; in the experiment on PC-3 prostate it was 1.74 µM; with SF-295 CNS, 2.86 µM. For the same compound, the TGI with T-47D breast worked out at 2.65 µM; in the experiment on UACC-62 melanoma, 1.59 µM; in the experiment with UO-31 renal it was 10.2 µM.

As to `COc1ccc(C(=O)/C=C/c2cc(-c3ccc(OC)c(OC)c3)n[nH]2)cc1OC`, the GI50 in the experiment on ACHN renal was 1.59 µM; in the experiment with HCC-2998 colon, 1.74 µM; with HL-60(TB) leukemia, 2.76 µM; with IGROV1 ovarian it was 3.13 µM; in the experiment with PC-3 prostate it was 1.98 µM; in the experiment with SF-295 CNS, 1.6 µM. The GI50 in the experiment with T-47D breast was 1.36 µM; in the experiment with UO-31 renal it was 1.5 µM. In addition, the TGI with ACHN renal is 3.83 µM; with HCC-2998 colon it was 3.19 µM; in the experiment with HL-60(TB) leukemia, greater than 100 µM; in the experiment on IGROV1 ovarian it was 53.8 µM; in the experiment on PC-3 prostate it was 35.7 µM; in the experiment with SF-295 CNS, 5.05 µM. The TGI in the experiment on T-47D breast came to 6.65 µM; in the experiment on UO-31 renal, 3.8 µM.

With `O=Cc1ccc(-c2ccc(-c3nc4ccccc4s3)cc2)o1`, the GI50 in the experiment on ACHN renal is greater than 100 µM; in the experiment on HCC-2998 colon, greater than 100 µM; in the experiment with HCT-116 colon, greater than 100 µM; with IGROV1 ovarian, greater than 100 µM; in the experiment with PC-3 prostate it was 45.2 µM; in the experiment with SF-295 CNS, 41.7 µM. Moreover, the GI50 with T-47D breast, in the experiment with UACC-62 melanoma and in the experiment on UO-31 renal was greater than 100 µM throughout. In addition, the TGI in the experiment on ACHN renal, in the experiment on HCC-2998 colon, in the experiment with HCT-116 colon, in the experiment with IGROV1 ovarian, with PC-3 prostate and with SF-295 CNS was greater than 100 µM in each case. The TGI in the experiment on T-47D breast, in the experiment on UACC-62 melanoma and with UO-31 renal was greater than 100 µM in each case.

Regarding `CCCCCCOC(=O)CC1=C(C)/C(=C/c2[nH]c(-c3ccc[nH]3)cc2OC)N=C1C`, the GI50 in the experiment on ACHN renal was 0.0663 µM; in the experiment with HCT-116 colon it was 0.0311 µM; in the experiment on HL-60(TB) leukemia it was 0.385 µM; with IGROV1 ovarian it was 0.178 µM; in the experiment on PC-3 prostate, 0.0487 µM; with SF-295 CNS it was 0.12 µM. Further, the figures for the GI50 with T-47D breast and in the experiment on UO-31 renal were 0.0367 µM and 0.163 µM, respectively. Besides, the TGI is 0.779 µM with ACHN renal; 1.05 µM in the experiment on HCT-116 colon; 1.76 µM in the experiment with HL-60(TB) leukemia; 1.23 µM in the experiment on IGROV1 ovarian; 1.78 µM in the experiment on PC-3 prostate; 0.466 µM in the experiment with SF-295 CNS. Also, the TGI in the experiment with T-47D breast amounted to 0.545 µM; in the experiment with UO-31 renal it was 0.329 µM.

Take `Cc1ccc(/C(=N/NS(=O)(=O)c2cc(C)c(Cl)cc2Cl)Sc2cc(Cl)c(C)cc2S(N)(=O)=O)cc1`: the GI50 is 86.4 µM with ACHN renal; greater than 100 µM in the experiment with HCT-116 colon; 70 µM with HL-60(TB) leukemia; greater than 100 µM with IGROV1 ovarian; greater than 100 µM in the experiment with PC-3 prostate; greater than 100 µM in the experiment on SF-295 CNS. Also, the GI50 in the experiment with T-47D breast, in the experiment on UACC-62 melanoma and in the experiment with UO-31 renal was greater than 100 µM throughout. Moreover, the TGI in the experiment with ACHN renal, in the experiment on HCT-116 colon, in the experiment on HL-60(TB) leukemia, in the experiment with IGROV1 ovarian, in the experiment on PC-3 prostate and in the experiment on SF-295 CNS was greater than 100 µM in each case. The TGI with T-47D breast, in the experiment with UACC-62 melanoma and in the experiment on UO-31 renal was greater than 100 µM each time.

Consider `Clc1ccc(-c2cnc3c(-c4ccnc(N5CCNCC5)c4)cnn3c2)cc1`, for which the GI50 in the experiment with HCC-2998 colon is 2.02 µM; with HCT-116 colon, 1.71 µM; with HL-60(TB) leukemia, 1.25 µM; with IGROV1 ovarian, 3.34 µM; in the experiment with PC-3 prostate, 1.85 µM; in the experiment on SF-295 CNS, 1.88 µM. Moreover, the GI50 was 1.82 µM with T-47D breast, 2.06 µM with UACC-62 melanoma and 1.61 µM with UO-31 renal. Further, the TGI in the experiment on HCC-2998 colon stood at 3.51 µM; in the experiment with HCT-116 colon, 3.09 µM; in the experiment with HL-60(TB) leukemia, 3.26 µM; in the experiment with IGROV1 ovarian, 11.6 µM; in the experiment on PC-3 prostate, 5.72 µM; in the experiment on SF-295 CNS it was 3.57 µM. Besides, the TGI in the experiment with T-47D breast was 3.8 µM; in the experiment with UACC-62 melanoma, 3.91 µM; with UO-31 renal it was 3.59 µM.

For `O=C(Nc1ccc(Cl)c(C(F)(F)F)c1)Nc1ccc(-c2cccnc2)cc1N1CCC(CO)CC1`, the GI50 with ACHN renal was 3 µM; with HCC-2998 colon it was 2.31 µM; in the experiment with HCT-116 colon it was 2.53 µM; in the experiment on IGROV1 ovarian it was 3.48 µM; in the experiment on PC-3 prostate it was 1.87 µM; with SF-295 CNS, 2.11 µM. Also, the GI50 in the experiment on T-47D breast is 2.09 µM; with UACC-62 melanoma, 2.18 µM; in the experiment with UO-31 renal, 2.43 µM. Further, the TGI in the experiment with ACHN renal is greater than 100 µM; in the experiment with HCC-2998 colon it was 4.9 µM; with HCT-116 colon, 6.9 µM; with IGROV1 ovarian it was greater than 100 µM; in the experiment on PC-3 prostate, 5.37 µM; with SF-295 CNS it was 5.15 µM. Further, the figures for the TGI with T-47D breast, in the experiment with UACC-62 melanoma and with UO-31 renal were 7.76 µM, 6.75 µM and greater than 100 µM, respectively.
